Earlier results as cited in patent EP1587517B1, “ANTI-PROTOZOAL COMPOSITIONS COMPRISING DICLAZURIL” (JANSSEN PHARMACEUTICA N.V., priority 2003, dated 2004).
≈ marks a conversion by molar mass, not a printed value. Read-outs that look alike come from different tables or passages of the source.

For `N#CC(c1ccc(Cl)cc1)c1c(Cl)cc(-n2ncc(=O)[nH]c2=O)cc1Cl` (stereo not shown) [diclazuril], the solubility (N,N-dimethylformamide) is listed as 32.6 mg/mL (≈ 80 mM), the solubility (dimethyl sulphoxide) is listed as 48 mg/mL (≈ 118 mM) and the solubility (tetrahydrofuran) is listed as 8.2 mg/mL (≈ 20.1 mM). The “saturation concentrations in water” value (water) was “below 1 µg/L”.
